What was measured:
Assay type in all cases: cell-based
[1] = tested on: H3K9Ac and H3K56Ac in HCT116 cells; experiment: Western blot of SIRT6 deacetylation substrates in HCT116 cells
Description: (§1) A Western Blot experimental method is used to detect the effect of SIRT6 small molecule allosteric activator as active ingredients in Table 1 and Table 2 for SIRT6 deacetylated active substrates H3K9 AC and H3K56 AC in cell cells.
(§2) HEK-293 T cells, Bel7405 cells, PLC/PFR/5 cells, Bel 7402 cells, HCT116 cells, HT29 cells, SW 480 cells, and HCT116 cells are test objects.
(§3) Step 1: the compound mother liquor (solvent is DMSO) listed in Table 1 and Table 2, the gradient concentration comprising 0.5 μmol/L, 1 μmol/L, 5 μmol/L, 10 μmol/L, 25 μmol/L and 50 μmol/L;
(§4) Step 3: the cell state was good after 24 hours, the fresh culture solution (2 mL) was replaced, and the mother liquor configured above is added to the cell culture solution of the experimental group according to the ratio of 1:1000; the same volume of DMSO (2 ul) is added to the cell culture solution of the control group;
(§5) Step 4: continue to culture for a certain time (12 hours, 24 hours, 48 hours or 60 hours).
(§6) 1) for each group of cells at the end of culture, the culture medium in each well is discarded and washed with 1*PBS once;
(§7) 2) add 150 μl SDS lysate containing bromophenol blue into each well, mix well and transfer to 1.5 ml EP tube respectively;
(§8) 3) store at 95° C. for 5 min, then on ice for 5 min, repeat three times;
(§9) 4) the supernatant is centrifuged at 12000×g for 5 min for Western blot detection.

[2] = tested on: H3K9Ac and H3K56Ac in SW480 cells; experiment: Western blot of SIRT6 deacetylation substrates in SW480 cells
Description: as §1, §2, §3, §4, §5, §6, §7, §8, §9

[3] = tested on: H3K9Ac and H3K56Ac in HT29 cells; experiment: Western blot of SIRT6 deacetylation substrates in HT29 cells
Description: as §1, §2, §3, §4, §5, §6, §7, §8, §9

## C[C@@H]1COCCN1C(C)(C)C [SOL-011]
[1]; CT116 cells, different concentrations, 48 hours, FIG. 45
  H3K9Ac and H3K56Ac (Western blot): down regulated H3K9Ac and h3k56ac
[1]; HCT116 cells, 10 μmol/L, 24 hours and 48 hours, FIG. 42
  H3K9Ac and H3K56Ac (Western blot): down regulated H3K9Ac and H3k56ac
[2]; 10 μmol/L, 24 hours and 48 hours, FIG. 44
  H3K9Ac and H3K56Ac (Western blot): can down regulate H3K9Ac and H3k56ac
[2]; different concentrations, 48 hours, FIG. 47
  H3K9Ac and H3K56Ac (Western blot): down regulated H3K9Ac and H3k56ac
[3]; 10 μmol/L, 24 hours and 48 hours, FIG. 43
  H3K9Ac and H3K56Ac (Western blot): down regulated H3K9Ac and H3k56ac
[3]; different concentrations, 48 hours, FIG. 46
  H3K9Ac and H3K56Ac (Western blot): down regulated H3K9Ac and H3k56ac
